# Source: patent publication US20220306603A1, “TARGETING DNA REPAIR IN TUMOR CELLS VIA INHIBITION OF ERCC1-XPF” (The Governors of the University of Alberta, priority 2019, published 2022)
# Entries after “also recorded” stand apart in the source; their conditions may differ.
# Assays:
# ADME screening: LogD = conditions: Table 8
# HCT116 cells [1] = assay: Cellular repair of UV-induced cyclobutane pyrimidine dimers (immunofluorescence); type: cell-based, human
# Experimental: Protocol of Mirzayans et al. was followed with minor modifications (30). Approximately 1×10^5 HCT116 cells were seeded on each coverslip and allowed to attach overnight. Medium was then removed and cells were treated for one hour with the desired compound. The medium was removed, and cells were exposed to 8 J/m^2 UV-C radiation (G15T8 254 nm lamp, Ushio America Inc, Cypress, Calif.) followed by adding fresh medium containing the compound. Plates were incubated at 37° C. for different periods of time up to 24 hours and fixed in 50:50 methanol/1× phosphate-buffered saline (PBS) solution, followed by replacing the methanol/PBS solution with 100% methanol and incubation in −20° C. After 20 minutes, methanol was removed, and cells were treated with PBS for 5 minutes in room temperature. After fixing, cells were permeabilized in 0.5% Triton/PBS and washed with PBS, denatured in 2 N HCl, and neutralized by twice washing with 0.1 M borate buffer pH 8.5. Cells on cover slips were washed once with PBS followed by blocking with 5% non-fat dry milk/PBS for 30 minutes. Mouse anti-thymine dimer monoclonal antibody (Cat. No. MC-062, Kamiya Biomedical Company, Seattle, Wash.) was applied to the cover slips for one hour in the dark and at room temperature. Cells were then washed with PBS containing 0.1% Tween-20 and incubated with rabbit anti-mouse IgG-Alexafluor antibody (Invitrogen, Carlsbad, Calif.) followed by two washes with PBS/(0.1%)Tween-20. Cells on coverslips were then washed with PBS, rinsed with water, and mounted on slides using DAPI glycerol mounting solution. Slides were kept at 4° C. before fluorescent microscopic evaluation and measurement of fluorescence intensity with MetaXpress Version: 6.2.1.704 software (Molecular Devices, Sunnyvale, Calif.).
# To test for inhibition of nucleotide excision repair, we monitored the cellular removal of UVC-induced cyclobutane pyrimidine dimers (CPDs) in HCT116 cells over a 24-hour period using an immunochemical assay.
# CYP2D6 = CYP2D6 (Homo sapiens, UniProt P10635); assay: CYP450 inhibition, CYP2D6
# HCT116 cells [2] = assay: Clonogenic survival assay, UV treatment; type: cell-based, human; conditions: 254 nm UV 0-10 J/m^2; compound 0.5-4 μM
# Experimental: UV treatment: HCT116 cells (100-800 cells depending on the UV dose) were plated in triplicate in 60-mm petri dishes. The cells were incubated overnight at 37° C. in a humidified atmosphere containing 5% CO2 to allow for cell attachment. […] Medium was removed again, and cells were exposed to increasing doses (0-10 J/m^2) of UV-C radiation and then incubated for a further 10 days in the presence of inhibitor at 37° C. in a 5% CO2 atmosphere to allow for colony formation. After this period plates were stained with crystal violet and colonies were counted using a Colcount instrument (Oxford Optronix, Abingdon UK). Finally, plating efficiency and surviving fraction were calculated.
# serum proteins = assay: ADME screening: serum protein binding; type: in vitro ADME; conditions: Table 8
# ERCC1-XPF = target: T1, ERCC1-XPF (Homo sapiens, UniProt Q92889); assay: Microplate fluorescence incision assay of ERCC1-XPF endonuclease activity; type: biochemical; conditions: for inhibition of ERCC1-XPF endonuclease activity (in words): compounds 10 μM each
# T1 construct: His6; made in house; host or cells: E. coli BL21 (DE3)
# T1 sequence (Q92889 1-916): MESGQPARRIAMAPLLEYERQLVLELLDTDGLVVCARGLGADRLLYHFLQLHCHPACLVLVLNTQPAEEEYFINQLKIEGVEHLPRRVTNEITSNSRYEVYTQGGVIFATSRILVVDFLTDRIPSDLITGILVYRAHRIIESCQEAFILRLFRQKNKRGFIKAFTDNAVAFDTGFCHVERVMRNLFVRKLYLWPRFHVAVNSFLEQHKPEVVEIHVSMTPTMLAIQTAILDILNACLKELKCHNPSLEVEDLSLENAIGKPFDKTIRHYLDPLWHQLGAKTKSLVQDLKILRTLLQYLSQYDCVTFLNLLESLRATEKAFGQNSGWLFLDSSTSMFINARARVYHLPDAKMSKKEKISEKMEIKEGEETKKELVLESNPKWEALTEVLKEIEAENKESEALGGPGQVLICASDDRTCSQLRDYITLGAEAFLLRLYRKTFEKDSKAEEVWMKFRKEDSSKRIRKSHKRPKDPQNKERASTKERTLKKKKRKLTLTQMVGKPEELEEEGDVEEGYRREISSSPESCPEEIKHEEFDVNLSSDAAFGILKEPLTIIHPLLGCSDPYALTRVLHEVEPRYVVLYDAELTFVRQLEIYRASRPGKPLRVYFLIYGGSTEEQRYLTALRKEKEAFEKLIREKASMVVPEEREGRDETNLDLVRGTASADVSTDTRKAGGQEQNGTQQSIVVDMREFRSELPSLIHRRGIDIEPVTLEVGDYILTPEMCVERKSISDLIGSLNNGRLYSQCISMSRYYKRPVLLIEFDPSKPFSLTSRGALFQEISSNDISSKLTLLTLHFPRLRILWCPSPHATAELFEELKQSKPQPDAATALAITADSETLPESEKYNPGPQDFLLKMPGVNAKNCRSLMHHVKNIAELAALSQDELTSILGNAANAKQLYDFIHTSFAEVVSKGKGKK
# Excerpt: This assay has been previously described (29), and utilizes a stem-loop substrate (composed of a 10mer-duplex stem and a 20mer-oligodT single-strand loop), labelled on the 5′-terminus with 6-FAM and 3′ with the quencher dabcyl.
# Human ERCC1-XPF wild-type protein was obtained as previously described (29). Basically, the recombinant protein was expressed from a bicistronic plasmid (provided by Dr. Richard Wood, University of Texas MD Anderson Cancer Center, Smithville, Tex.) in the E. coli BL21 (DE3) strain. Since both XPF and ERCC1 contained a polyhistidine (His-6) tag, the proteins extracted from E. coli were incubated with a ProBond Nickel-Chelating Resin (Thermo Fisher Scientific). Protein eluted from the Ni affinity column was subsequently loaded into a Hi-trap heparin column (GE Healthcare). Fractions recovered from the heparin column that contained ERCC1-XPF were dialyzed, concentrated and stored at −80° C. in 10 mM HEPES pH 7.4, 2.5 mM p-mercaptoethanol, 0.01% CHAPS, 0.25 mM EDTA, 50% glycerol and 25 mM NaCl.
# A previously described protocol (2,29) was followed.
# HCT116 cells [3] = assay: Clonogenic survival assay, cyclophosphamide treatment; type: cell-based, human; conditions: cyclophosphamide 0-300 μM, compound 1-4 μM
# Experimental: Plates were incubated for another 8 days at 37° C. in a 5% CO2 atmosphere for colony formation. After this period plates were stained with crystal violet, colonies were counted, and plating efficiency and surviving fraction were calculated.
# Chain of CYP2D6 (P10635 whole entry): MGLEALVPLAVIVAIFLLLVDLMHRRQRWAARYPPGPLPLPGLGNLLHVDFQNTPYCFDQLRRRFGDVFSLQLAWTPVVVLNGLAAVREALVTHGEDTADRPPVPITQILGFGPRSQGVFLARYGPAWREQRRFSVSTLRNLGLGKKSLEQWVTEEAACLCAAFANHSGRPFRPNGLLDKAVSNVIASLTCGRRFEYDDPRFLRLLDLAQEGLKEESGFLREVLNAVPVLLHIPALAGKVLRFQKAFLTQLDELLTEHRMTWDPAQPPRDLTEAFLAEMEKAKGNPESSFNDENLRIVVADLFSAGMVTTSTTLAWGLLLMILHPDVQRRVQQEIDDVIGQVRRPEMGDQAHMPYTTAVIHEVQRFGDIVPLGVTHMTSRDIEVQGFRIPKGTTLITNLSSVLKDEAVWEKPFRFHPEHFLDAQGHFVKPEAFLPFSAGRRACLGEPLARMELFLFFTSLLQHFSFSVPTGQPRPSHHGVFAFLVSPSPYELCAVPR
structure (smiles),measurement,setting,value
"COc1ccc2nc3cc(Cl)ccc3c(Nc3ccc(O)c(CN4CCN(CCN(C)C)CC4)c3)c2c1 [Compound A4, 4-((6-Chloro-2-methoxyacridin-9-yl)amino)-2-((4-(2-(dimethylamino)ethyl)piperazin-1-yl)methyl) phenol]",LogD (rating),ADME screening: LogD,Good
same,logD,ADME screening: LogD,2.86
same,inhibition of cellular removal of CPDs / thymidine dimers (in words),"HCT116 cells [1]; 8 J/m^2 UV-C, up to 24 h post-irradiation",significantly different; also recorded: significant inhibition of removal of CPDs
same,CPDs removed over 24 hours after UV exposure,"HCT116 cells [1]; 8 J/m^2 UV, control approximately 80%",approximately 60%
same,inhibition of CYP2D6 (in words),CYP2D6,weak inhibitor
same,"sensitisation to UV radiation, clonogenic survival (in words)",HCT116 cells [2],significantly reduced survival
same,Serum protein binding (% bound),serum proteins,(99.9) % bound
same,Serum protein binding (in words),serum proteins,Strong
same,enzyme activity after pre-incubation of ERCC1-XPF with compound (in words),"ERCC1-XPF; 3 μM compound, 10% or 5% DMSO",time-dependent loss of enzyme activity
same,inhibition of ERCC1-XPF endonuclease activity (in words),ERCC1-XPF,marked capacity to inhibit; also recorded: potent inhibitors
same,inhibition of ERCC1-XPF endonuclease activity (in words),ERCC1-XPF; listed as Gen A-4,significantly better inhibitory properties
same,"sensitisation to cyclophosphamide, clonogenic survival (in words)",HCT116 cells [3],no colonies were observed; also recorded: significantly sensitized the cells to cyclophosphamide; also recorded: no colonies were detected
same,"sensitisation to cyclophosphamide, clonogenic survival (in words)",HCT116 cells [3]; listed as Gen A4,significantly sensitized the cells to cyclophosphamide
